From patent EP4080216A1, “METHODS DETERMINING THE POTENTIAL OF DRUGS FOR TREATING BACTERIAL INFECTIONS AND COMPOSITION FOR TREATING BACTERIAL INFECTIONS” (priority 2021, dated 2022) come the findings set out here.

“Also recorded” adds a separate entry of the source.

One assay concerns CD14. Nature of the assay: bead assay: binding of fluorescent FimH-expressing (ON) bacteria to CD14-coupled magnetic beads, flow cytometry. Set-up: species or system murine. As for the experimental part:
In one embodiment, the CD14 protein is a recombinant chimeric protein. In a preferred embodiment, the CD14 protein comprises the murine N-terminal of CD14 which is bound to protein A on the magnetic beads via the Fc tail. In another embodiment, the magnetic beads are pre-coated with protein A. In one preferred embodiment, a fluorescent marker is stably integrated into the DNA of the bacteria. The stable integration of a fluorescent marker into the bacteria DNA is performed by any conventional means known to the skilled person such as by transforming the bacteria with a conditional-replication, integration, and modular (CRIM) plasmid. In another embodiment, the fluorescent marker is transiently integrated into the DNA of the bacteria. The transient integration of a fluorescent marker into the bacteria DNA is performed by any conventional means known to the skilled person such as by transforming the bacteria with a plasmid harbouring the fluorescent marker. In another embodiment, the DNA is visualized by a fluorescent marker added after step f). In a preferred embodiment, the fluorescent marker added after step f) is a fluorescent dye. In the latter embodiment, the fluorescent marker or fluorescent dye is thiazole orange, Hoechst 3342, Hoechst 3358, or carboxyfluorescein diacetate (CFDA) and its derivatives. In one embodiment, the infection causing type I piliated gram-negative bacteria are causing neonatal meningitis. In another embodiment, the infection causing type I piliated gram-negative bacteria are causing inflammatory bowel diseases such as Crohn's disease or ulcerative colitis. In one embodiment, the infection causing type I piliated gram-negative bacteria causes Crohn's disease. In another embodiment, the infection causing type I piliated gram-negative bacteria causes ulcerative colitis. In yet another embodiment, the infection causing type I piliated gram-negative bacteria causes gastrointestinal disorders or gastrointestinal diseases such as salmonellosis. In a preferred embodiment, the infection causing type I piliated gram-negative bacteria cause urinary tract infections. In a particularly preferred embodiment, the type I piliated gram-negative bacteria causing urinary tract infections are uropathogenic E. coli. In one embodiment, the incubation of the type I piliated gram-negative bacteria with the CD14-coupled magnetic beads and the added drug or compound lasts between ten minutes and six hours. In one embodiment, the incubation takes between 30 minutes and three hours. In a particularly preferred embodiment, the incubation takes between 45 and 90 minutes. In one embodiment, the added drug or compound is an inhibitor, antibody or antibiotic. […]

Assay [1] has as its system Hox8b-derived murine dendritic cells. Nature of the assay: adhesion assay: adhesion of dendritic cells infected with type I piliated (ON) bacteria, Hoechst fluorescence plate reader and brightfield images. The conditions noted are these: ON bacteria at multiplicity of infection of 10, 18 to 20 hours post infection. It is filed as cell-based. As for the experimental part: In one embodiment, the dendritic cells are dendritic cells from any mammalian species such as human, primate, mouse, cow, pig, dog, goat, rabbit, rat and cow. In one embodiment, the dendritic cells are human or murine dendritic cells. In another embodiment, the dendritic cells are established dendritic cell lines. In another embodiment, the dendritic cells are human dendritic cell lines such as Thp-1, HL-60, MUTZ-3, U937, KG-1 and PDMC05. In one embodiment, the dendritic cells are cultured in regular cell culture dishes or cell culture plates known to the skilled person in the art. In another embodiment, the cell culture dishes or cell culture plates are treated with different extracellular matrix components such as fibronectin or fibrinogen or combinations thereof. In another embodiment, genetically modified dendritic cells are used. In a preferred embodiment, the genetically modified dendritic cells express a fluorescent marker. In a particularly preferred embodiment, the genetically modified dendritic cells have a fluorescently labelled actin cytoskeleton. In a particularly preferred embodiment, the genetically modified dendritic cells express LifeAct®-GFP and therefore, have a fluorescently labelled actin cytoskeleton. In one embodiment, the dendritic cells are infected with the bacteria at a multiplicity of infection of 1-100 (1-100 bacteria per 1 dendritic cell). The skilled person is aware that infected dendritic cells are activated dendritic cells. In another embodiment, the dendritic cells are infected with the bacteria at a multiplicity of infection of 1-30 (1-30 bacteria per 1 dendritic cell). In a particularly preferred embodiment, the dendritic cells are infected with the bacteria at a multiplicity of infection of 10 (10 bacteria per 1 dendritic cell). In one embodiment, the infection causing type I piliated gram-negative bacteria are causing neonatal meningitis. In another embodiment, the infection causing type I piliated gram-negative bacteria are causing inflammatory bowel diseases such as Crohn's disease or ulcerative colitis. In one embodiment, the infection causing type I piliated gram-negative bacteria causes Crohn's disease. In another embodiment, the infection causing type I piliated gram-negative bacteria causes ulcerative colitis. In yet another embodiment, the infection causing type I piliated gram-negative bacteria causes gastrointestinal disorders or gastrointestinal diseases such as salmonellosis. In a preferred embodiment, the infection causing type I piliated gram-negative bacteria cause urinary tract infections. In a particularly preferred embodiment, the type I piliated gram-negative bacteria causing urinary tract infections are uropathogenic E. coli. […]

For the molecule D-mannose, the “block binding of ON bacteria to CD14” value in the assay on CD14 (175 µM, UPEC ON bacteria, one hour at 4 °C) is on record as “not sufficient to block binding”. Besides, the “inhibit binding of ON bacteria to CD14-coupled beads” value in the assay on CD14 (1 mM, UPEC ON bacteria, one hour at 4 °C) is given as “prevented binding; also recorded: able to inhibit binding”. Further, the “adhesion of dendritic cells” value in assay [1] (175 µM) was “did not decrease adhesion”; in assay [1] (1 mM), “resulted in decreased adhesion; also recorded: partially able to do so”.

`CNC(=O)c1cc(C(=O)NC)cc(-c2ccc(O[C@H]3O[C@H](CO)[C@@H](O)[C@H](O)[C@@H]3O)c(C)c2)c1` [M4284]: the “inhibit binding of ON bacteria to CD14-coupled beads” value in the assay on CD14 (10 µM, UPEC ON bacteria, one hour at 4 °C) is on record as “prevented binding; also recorded: able to inhibit binding”. Moreover, the “adhesion of dendritic cells” value in assay [1] (10 µM) is “resulted in decreased adhesion; also recorded: partially able to do so”.

As to `Cc1c2c(c(O)c3c(O)cccc13)C(=O)[C@]1(O)C(=O)C(C(N)=O)=C(O)[C@@H](N(C)C)[C@@H]1C2` [anhydrotetracycline], in the assay on CD14 (sub-minimal inhibitory concentrations, ON bacteria), the “prevent binding of ON bacteria to CD14-coupled beads” value is given as “not able to prevent binding”. Besides, in assay [1] (concentration not given), the “adhesion of dendritic cells” value is “increased adhesion even further; also recorded: significantly increased adhesion”.
